Measurements from patent US20260008746A1, “CATIONIC LIPID COMPOUND WITH HIGH EFFICIENCY, LOW TOXICITY AND STABLE EXPRESSION, AND COMPOSITION COMPRISNG SAME” (HANGZHOU TIANLONG PHARMACEUTICAL CO., LTD, priority 2023, published 2026).

Assays:
BALB/C mice = assay: In vivo imaging of Fluc-mRNA expression in mice delivered by LNP formulations; conditions: for average radiation intensity, 6 h / average radiation intensity, 24 h / average radiation intensity, 48 h / average radiation intensity, 7 d: LNP containing 10 pg Fluc-mRNA, intramuscular, female BALB/C mice
Summary of the method: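 Female BALB/C mice (4-6 weeks, 17-19 g) received LNP carrying […] Fluc-mRNA intramuscularly. Substrate was given intraperitoneally at 6 h, 24 h, 48 h and 7 d, and average radiance was imaged by IVIS 5 min later.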

[1] = Determination of particle size and polydispersity index (PDI) of lipid nanoparticles by dynamic light scattering; type: physicochemical; conditions: LNP formulation of named cationic lipid/DSPC/cholesterol/DMG-PEG2000 49:10:39.5:1.5; for Particle size (nm): 90° scattering angle, 25° C
Protocol: The cationic lipids listed in Table 1 were dissolved in ethanol with DSPC (AVT (Shanghai) Pharmaceutical Technology Co., Ltd.), cholesterol (AVT (Shanghai) Pharmaceutical Technology Co., Ltd.) and DMG-PEG2000 according to a molar ratio of 49:10:39.5:1.5, respectively, to prepare lipid solution in ethanol. The lipid solution in ethanol was quickly added to citrate buffer (pH=4 to 5) by ethanol injection method, and vortexed for 30 s for later use. eGFP-mRNA (from Shanghai Biohub International Trade Co., Ltd) or Fluc-mRNA (from Shanghai Biohub International Trade Co., Ltd) was diluted in citrate buffer (pH=4 to 5) to give an aqueous mRNA solution. A certain volume of liposome solution and mRNA aqueous solution were used to prepare liposomes at a weight ratio of total lipids to mRNA of 15:1. The mixtures were sonicated at 25° C. for 15 min (with an ultrasonic frequency of 40 kHz and an ultrasonic power of 800 W). The resulting liposomes were diluted to 10 times volume with PBS, and then ultrafiltered with a 300 KDa ultrafiltration tube to remove ethanol. Then the volume was fixed to a certain volume with PBS to give an LNP formulation encapsulating eGFP-mRNA or Fluc-mRNA using cationic lipid/DSPC/cholesterol/DMG-PEG2000 (49:10:39.5:1.5 in molar percentage).
The particle size and polydispersity index (PDI) were determined by dynamic light scattering using Malvern laser particle size analyzer.
10 μL of the liposome solution was weighed, diluted to 1 mL with RNase-free deionized water, and added to the sample pool. Each sample was measured in triplicate. The measurement conditions were: 90° scattering angle, and 25° C.

293T cells [2] = assay: Fluorescent detection of Fluc-mRNA (cell transfection efficiency of LNP formulations); type: cell-based; conditions: for Relative light unit (RLU): LNP formulation containing 0.3 μg Fluc-mRNA, 96-well plate, 24 hours; for Multiples (YK-101): RLU of YK-101 / RLU of named substance; for Multiples (YK-107): RLU of YK-107 / RLU of named substance; for Multiples (YK-108): RLU of YK-108 / RLU of named substance; for Ratio relative to SM-102: RLU of named substance / RLU of SM-102; for difference from SM-102 in Fluc-mRNA fluorescence (GraphPad Prism analysis): statistical comparison with SM-102
Summary of the method: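 293T cells seeded at 10,000 per well, cultured overnight, then given LNP carrying 0.3 μg Fluc-mRNA (cationic:neutral:structured:PEG-lipid 49:10:39.5:1.5 molar). Incubated 24 h. Luciferase signal read with kit reagent on an IVIS imaging system.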

293T cells [3] = assay: Cell survival rate determination (CCK-8); type: cell-based; conditions: for Cell survival rate (%): LNP formulation containing 1.5 μg Fluc-mRNA, 24 hours, CCK-8, absorbance at 450 nm; for cell survival rate lower than that of YK-101: cell survival rate of YK-101 minus that of named substance; for cell survival rate lower than that of YK-107: cell survival rate of YK-107 minus that of named substance; for cell survival rate lower than that of YK-108: cell survival rate of YK-108 minus that of named substance
Summary of the method: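 293T cells were seeded overnight at 10,000 cells/well in 96-well plates, then exposed for 24 h to LNP containing 1.5 μg Fluc-mRNA (cationic:neutral:structural:polymer-conjugated lipid, 49:10:39.5:1.5 molar) or to Lipofectamine 3000. Viability was read by CCK-8, 1 h incubation, absorbance 450 nm.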

[4] = highest multiple, time point not stated

Compound	average radiation intensity of YK-101, times that of named substance (BALB/C mice; 6 h) [times]	average radiation intensity of YK-107, times that of named substance (BALB/C mice; 6 h) [times]	average radiation intensity of YK-108, times that of named substance (BALB/C mice; 6 h) [times]	average radiation intensity of YK-101, times that of named substance (BALB/C mice; 24 h) [times]	average radiation intensity of YK-107, times that of named substance (BALB/C mice; 24 h) [times]	average radiation intensity of YK-108, times that of named substance (BALB/C mice; 24 h) [times]	average radiation intensity of YK-101, times that of named substance (BALB/C mice; 48 h) [times]	average radiation intensity of YK-107, times that of named substance (BALB/C mice; 48 h) [times]	average radiation intensity, 6 h (BALB/C mice; 6 h)	average radiation intensity, 24 h (BALB/C mice; 24 h)	average radiation intensity, 48 h (BALB/C mice; 48 h)	average radiation intensity, 7 d (BALB/C mice; 7 d)	PDI(%) [1] [%]	Particle size (nm) [1] [nm]	Relative light unit (RLU) (293T cells [2])	Ratio relative to SM-102 (293T cells [2])	Cell survival rate (%) (293T cells [3])	cell survival rate lower than that of YK-101 (293T cells [3]) [%]	cell survival rate lower than that of YK-107 (293T cells [3]) [%]	cell survival rate lower than that of YK-108 (293T cells [3]) [%]	further results
CCCCCCCCCC(=O)OCCCCN(CCO)CCCCCC(=O)OCC(CCCCCCCC)CCCCCCCC [YK-106]	2.2	2.3	2.9	10.0	12.3	13.3	5.6	6.9	683840	105776	32940	7052	14.4	140	1628063	1.06	59.59	30.53	30.86	30.27	average radiation intensity of YK-108, times that of named substance (BALB/C mice; 48 h): 7.0 times; average radiation intensity of YK-101, times that of named substance (BALB/C mice; 7 d): 1.7 times; average radiation intensity of YK-107, times that of named substance (BALB/C mice; 7 d): 1.9 times; average radiation intensity of YK-108, times that of named substance (BALB/C mice; 7 d): 2.0 times; Multiples (YK-101) (293T cells [2]): 12.49; Multiples (YK-107) (293T cells [2]): 13.73; Multiples (YK-108) (293T cells [2]): 15.15; difference from SM-102 in Fluc-mRNA fluorescence (GraphPad Prism analysis) (293T cells [2]): no significant difference
CCCCCCC(CCCCCC)CCOC(=O)CCCCCCCN(CCO)CCCCCCCC(=O)OCCC(CCCCCC)CCCCCC [Compound 23, bis(3-hexylnonyl)-8, 8′-((2-hydroxyethyl)azadialkyl)dioctanoate, reference compound]	2.5	2.7	3.4	9.4	11.6	12.5	5.6	6.8	599850	112670	33060	5863	7.7	140	1290824	0.84	70.91	19.21	19.54	18.95	average radiation intensity of YK-108, times that of named substance (BALB/C mice; 48 h): 7.0 times; average radiation intensity of YK-101, times that of named substance (BALB/C mice; 7 d): 2.1 times; average radiation intensity of YK-107, times that of named substance (BALB/C mice; 7 d): 2.3 times; average radiation intensity of YK-108, times that of named substance (BALB/C mice; 7 d): 2.4 times; Multiples (YK-101) (293T cells [2]): 15.75; Multiples (YK-107) (293T cells [2]): 17.32; Multiples (YK-108) (293T cells [2]): 19.10
CCCCCCCCCCCOC(=O)CCCCCN(CCO)CCCCCCCC(=O)OC(CCCCCCCC)CCCCCCCC [SM-102, reference compound]	2.2	2.3	2.9	9.0	11.1	11.9	5.8	7.1	689570	117750	31900	5834	17.4	142	1534210	1.00	68.17	21.95	22.28	21.69	average radiation intensity of YK-108, times that of named substance (BALB/C mice; 48 h): 7.2 times; average radiation intensity of YK-101, times that of named substance (BALB/C mice; 7 d): 2.1 times; average radiation intensity of YK-107, times that of named substance (BALB/C mice; 7 d): 2.3 times; average radiation intensity of YK-108, times that of named substance (BALB/C mice; 7 d): 2.4 times; expression amount of mRNA in mice of YK-108, times that of named substance (BALB/C mice; [4]): up to 11 times; Multiples (YK-101) (293T cells [2]): 13.25; Multiples (YK-107) (293T cells [2]): 14.58; Multiples (YK-108) (293T cells [2]): 16.07
CCCCCCCCCC(=O)OCCCCN(CCO)CCCCCC(=O)OCCC(CCCCCC)CCCCCC [YK-109]	2.4	2.6	3.2	11.2	13.8	14.8	10.1	12.2	625040	94720	18496	4948	28.2	205	717431	0.47	69.45	20.67	21.00	20.41	average radiation intensity of YK-108, times that of named substance (BALB/C mice; 48 h): 12.5 times; average radiation intensity of YK-101, times that of named substance (BALB/C mice; 7 d): 2.5 times; average radiation intensity of YK-107, times that of named substance (BALB/C mice; 7 d): 2.7 times; average radiation intensity of YK-108, times that of named substance (BALB/C mice; 7 d): 2.9 times; expression amount of mRNA in mice of YK-101, times that of named substance (BALB/C mice; [4]): up to 11 times; expression amount of mRNA in mice of YK-107, times that of named substance (BALB/C mice; [4]): ≤ 13 times; difference from SM-102 in Fluc-mRNA fluorescence (GraphPad Prism analysis) (293T cells [2]): no significant difference
CCCCCCCCCCOC(=O)CCCN(CCO)CCCCCC(=O)OCC(CCCCCCCC)CCCCCCCC [YK-009, reference compound]									1055200	770050	132100	10665	12.1	205	5075954	3.31	73.57	16.55	16.88	16.29	Multiples (YK-101) (293T cells [2]): 4.01; Multiples (YK-107) (293T cells [2]): 4.41; Multiples (YK-108) (293T cells [2]): 4.86
